In US7078195B2, “Antibiotics AA-896” (Wyeth Holdings Corporation, priority 2001, dated 2006):
In brackets after ≈: the same amount, converted by molar mass.

Experiments:
Assay in all cases: Broth dilution MIC
Format in all cases: cell-based
S. aureus GC 2216 = settings: 18 hours at 35° C.; for Antimicrobial Activity (MIC): Mueller-Hinton broth
Protocol: (§1) The in vitro antibacterial activity of AA-896-A1, AA-896-A2, AA-896-A3, AA-896-A4, AA-896-A5, AA-896-B1, AA-896-B2, AA-896-B3, AA-896-B4, AA-896-B5, AA-896-B6, AA-896-B7, AA-896-C1, AA-896-C2, AA-896-C3, AA-896-C4, AA-896-D1, AA896-D2 and AA-896-D3 is determined against a spectrum of Gram-positive and Gram-negative bacteria by a standard broth dilution method. Serial dilution of the compounds are made in Mueller-Hinton broth and inoculated with a bacterial suspension. The lowest concentration of compound that inhibited the growth of a bacterial strain after 18 hours of incubation at 35° C. is reported as the minimal inhibitory concentration (MIC) for that strain.

E. coli GC 4559 = settings: 18 hours at 35° C.; for Antimicrobial Activity (MIC): Mueller-Hinton broth
Protocol: as §1

S. marcescens GC 4077 = settings: 18 hours at 35° C.; for Antimicrobial Activity (MIC): Mueller-Hinton broth
Protocol: as §1

E. faecalis GC 4555 = settings: 18 hours at 35° C.; for Antimicrobial Activity (MIC): Mueller-Hinton broth
Protocol: as §1

P. aeruginosa GC 4532 = settings: 18 hours at 35° C.; for Antimicrobial Activity (MIC): Mueller-Hinton broth
Protocol: as §1

P. aeruginosa GC 2214 = settings: 18 hours at 35° C.; for Antimicrobial Activity (MIC): Mueller-Hinton broth
Protocol: as §1

S. aureus GC 4536 = settings: 18 hours at 35° C.; for Antimicrobial Activity (MIC): Mueller-Hinton broth
Protocol: as §1

E. faecalis GC 842 = settings: 18 hours at 35° C.; for Antimicrobial Activity (MIC): Mueller-Hinton broth
Protocol: as §1

CNS GC 4537 = settings: Mueller-Hinton broth, 18 hours at 35° C.
Protocol: as §1

S. aureus GC 1131 = settings: 18 hours at 35° C.; for Antimicrobial Activity (MIC): Mueller-Hinton broth
Protocol: as §1

E. cloacae GC 3783 = settings: 18 hours at 35° C.; for Antimicrobial Activity (MIC): Mueller-Hinton broth
Protocol: as §1

E. coli GC 4560 = settings: 18 hours at 35° C.; for Antimicrobial Activity (MIC): Mueller-Hinton broth
Protocol: as §1

M. morganii GC 4531 = settings: 18 hours at 35° C.; for Antimicrobial Activity (MIC): Mueller-Hinton broth
Protocol: as §1

CNS GC 4538 = settings: Mueller-Hinton broth, 18 hours at 35° C.
Protocol: as §1

K. pneumoniae GC 4534 = settings: 18 hours at 35° C.; for Antimicrobial Activity (MIC): Mueller-Hinton broth
Protocol: as §1

E. coli GC 2203 = settings: 18 hours at 35° C.; for Antimicrobial Activity (MIC): Mueller-Hinton broth
Protocol: as §1

P. rettgeri GC 4530 = settings: 18 hours at 35° C.; for Antimicrobial Activity (MIC): Mueller-Hinton broth
Protocol: as §1

E. coli GC 3226 = settings: 18 hours at 35° C.; for Antimicrobial Activity (MIC): Mueller-Hinton broth
Protocol: as §1

E. faecalis GC 2242 = settings: 18 hours at 35° C.; for Antimicrobial Activity (MIC): Mueller-Hinton broth
Protocol: as §1

CNS GC 4547 = settings: Mueller-Hinton broth, 18 hours at 35° C.
Protocol: as §1

[1] = read-out: Antimicrobial Activity (MIC)

Row | Structure (SMILES) | Antimicrobial Activity (MIC) (S. aureus GC 2216) [µg/mL] | Antimicrobial Activity (MIC) (E. coli GC 4559) [µg/mL] | Antimicrobial Activity (MIC) (S. marcescens GC 4077) [µg/mL] | Antimicrobial Activity (MIC) (E. faecalis GC 4555) [µg/mL] | Antimicrobial Activity (MIC) (P. aeruginosa GC 4532) [µg/mL] | Antimicrobial Activity (MIC) (P. aeruginosa GC 2214) [µg/mL] | Antimicrobial Activity (MIC) (S. aureus GC 4536) [µg/mL] | Antimicrobial Activity (MIC) (E. faecalis GC 842) [µg/mL] | Antimicrobial Activity (MIC) (CNS GC 4537) [µg/mL] | Antimicrobial Activity (MIC) (S. aureus GC 1131) [µg/mL] | Antimicrobial Activity (MIC) (E. cloacae GC 3783) [µg/mL] | Antimicrobial Activity (MIC) (E. coli GC 4560) | Antimicrobial Activity (MIC) (M. morganii GC 4531) [µg/mL] | Antimicrobial Activity (MIC) (CNS GC 4538) [µg/mL] | Antimicrobial Activity (MIC) (K. pneumoniae GC 4534) [µg/mL] | Antimicrobial Activity (MIC) (E. coli GC 2203) [µg/mL] | Antimicrobial Activity (MIC) (P. rettgeri GC 4530) [µg/mL] | Antimicrobial Activity (MIC) (E. coli GC 3226) [µg/mL] | Antimicrobial Activity (MIC) (E. faecalis GC 2242) [µg/mL] | Antimicrobial Activity (MIC) (CNS GC 4547) [µg/mL] | other results
1 | CC(C)CCCCC(=O)OC(C(C)C)C(NC(=O)C(NC(=O)NC(C(=O)O)C(C)C)C1CCNC(=N)N1)C(=O)NCCCNC(C(=O)O)C(OC1OC(CN)C(O)C1O)C1OC(n2ccc(=O)[nH]c2=O)C(O)C1O [AA-896-B7, 5-O-[5-Amino-5-deoxy-β-D-ribofuranosyl]-6-[[3-[2-[2-[[(1-carboxy-2-methylpropyl)-carbamoyl]amino]-2-(hexahydro-2-iminopyrimidin-4-yl)acetamido]-4-methyl-3-[(6-methylheptanoyl)oxy]pentanamido]propyl]amino]-1,6-dideoxy-1-(3,4-dihydro-2,4-dioxopyrimidin-1(2H)-yl)-β-D-heptofuranuronic acid] | >64 | 64 | >64 | >64 | >64 | >64 | >64 | >64 | >64 | >64 | 16 | <=0.06 μg/ml | >64 | >64 | 64 | >64 | >64 | >64 | >64 | >64 | 
2 | COC1C(OC(C(NCCCNC(=O)C(CC(C)C)NC(=O)C(NC(=O)NC(C(=O)O)C(C)C)C2CCNC(=N)N2)C(=O)O)C2OC(n3ccc(=O)[nH]c3=O)C(O)C2O)OC(CN)C1O [AA-896-D1, 5-O-[5-Amino-5-deoxy-2-O-methyl-β-D-ribofuranosyl]-6-[[3-[2-[2-[[(1-carboxy-2-methyl-propyl)carbamoyl]amino]-2-(hexahydro-2-iminopyrimidin-4-yl)acetamido]-4-methyl-pentanamido]propyl]amino]-1,6-dideoxy-1-(3,4-dihydro-2,4-dioxopyrimidin-1(2H)-yl)-β-D-heptofuranuronic acid] | >32 | >32 | >32 | >32 | 32 | 32 | >32 | >32 | >32 | >32 | 32 | 1 µg/mL | >32 | >32 | >32 | >32 | >32 | 32 | >32 | >32 | 
3 | CC(C)C(NC(=O)NC(C(=O)NC(C(=O)NCCCNC(C(=O)O)C(O)C1OC(n2ccc(=O)[nH]c2=O)C(O)C1O)C(O)C(C)C)C1CCNC(=N)N1)C(=O)O [AA-896-C4, 6-[[3-[2-[2-[[(1-Carboxy-2-methylpropyl)carbamoyl]amino]-2-(hexahydro-2-iminopyrimidin-4-yl)acetamido]-3-hydroxy-4-methylpentanamido]propyl]amino]-1,6-dideoxy-1-(3,4-dihydro-2,4-dioxopyrimidin-1(2H)-yl)-β-D-heptofuranuronic acid] |  |  |  |  |  |  |  |  |  |  |  |  |  |  |  |  |  |  |  |  | MIC (S. aureus GC 2216; Staphylococcus aureus, GC2216, Mueller-Hinton broth, read-out: Antimicrobial Activity (MIC)): > 32 µg/mL; MIC (E. coli GC 4559; Escherichia coli, GC4559, Mueller-Hinton broth, read-out: Antimicrobial Activity (MIC)): > 32 µg/mL; MIC (S. marcescens GC 4077; Serratia marcescens, GC4077, Mueller-Hinton broth, read-out: Antimicrobial Activity (MIC)): > 32 µg/mL; MIC (E. faecalis GC 4555; Enterococcus faecalis, GC4555, Mueller-Hinton broth, read-out: Antimicrobial Activity (MIC)): > 32 µg/mL; MIC (P. aeruginosa GC 4532; Pseudomonas aeruginosa, GC4532, Mueller-Hinton broth, read-out: Antimicrobial Activity (MIC)): 32 µg/mL (≈ 40 µM); MIC (P. aeruginosa GC 2214; Pseudomonas aeruginosa, GC2214, Mueller-Hinton broth, read-out: Antimicrobial Activity (MIC)): 32 µg/mL (≈ 40 µM); MIC (S. aureus GC 4536; Staphylococcus aureus, GC4536, Mueller-Hinton broth, read-out: Antimicrobial Activity (MIC)): > 32 µg/mL; MIC (E. faecalis GC 842; Enterococcus faecalis, GC842, Mueller-Hinton broth, read-out: Antimicrobial Activity (MIC)): > 32 µg/mL; MIC (CNS GC 4537; [1]): > 32 µg/mL; MIC (S. aureus GC 1131; Staphylococcus aureus, GC1131, Mueller-Hinton broth, read-out: Antimicrobial Activity (MIC)): > 32 µg/mL; MIC (E. cloacae GC 3783; Enterobacter cloacae, GC3783, Mueller-Hinton broth, read-out: Antimicrobial Activity (MIC)): > 32 µg/mL; MIC (E. coli GC 4560; Escherichia coli, GC4560, Mueller-Hinton broth, read-out: Antimicrobial Activity (MIC)): 4 µg/mL (≈ 4.99 µM); MIC (M. morganii GC 4531; Morganella morganii, GC4531, Mueller-Hinton broth, read-out: Antimicrobial Activity (MIC)): > 32 µg/mL; MIC (CNS GC 4538; [1]): > 32 µg/mL; MIC (K. pneumoniae GC 4534; Klebsiella pneumoniae, GC4534, Mueller-Hinton broth, read-out: Antimicrobial Activity (MIC)): > 32 µg/mL; MIC (E. coli GC 2203; Escherichia coli, GC2203, Mueller-Hinton broth, read-out: Antimicrobial Activity (MIC)): > 32 µg/mL; MIC (P. rettgeri GC 4530; Providencia rettgeri, GC4530, Mueller-Hinton broth, read-out: Antimicrobial Activity (MIC)): > 32 µg/mL; MIC (E. coli GC 3226; Escherichia coli, GC3226, Mueller-Hinton broth, read-out: Antimicrobial Activity (MIC)): > 32 µg/mL; MIC (E. faecalis GC 2242; Enterococcus faecalis, GC2242, Mueller-Hinton broth, read-out: Antimicrobial Activity (MIC)): > 32 µg/mL; MIC (CNS GC 4547; [1]): > 32 µg/mL
4 | COC1C(OC(C(NCCCNC(=O)C(NC(=O)C(NC(=O)NC(C(=O)O)C(C)C)C2CCNC(=N)N2)C(OC(=O)CCCCC(C)C)C(C)C)C(=O)O)C2OC(n3ccc(=O)[nH]c3=O)C(O)C2O)OC(CN)C1O [AA-896-B6, 5-O-[5-Amino-5-deoxy-2-O-methyl-β-D-ribofuranosyl]-6-[[3-[2-[2-[[(1-carboxy-2-methyl-propyl)carbamoyl]amino]-2-(hexahydro-2-iminopyrimidin-4-yl)acetamido]-4-methyl-3-[(6-methylheptanoyl)oxy]pentanamido]propyl]amino]-1,6-dideoxy-1-(3,4-dihydro-2,4-dioxopyrimidin-1(2H)-yl)-β-D-heptofuranuronic acid] | >64 | 32 | >64 | >64 | >64 | 64 | >64 | >64 | >64 | >64 | 8 | <=0.06 μg/ml | >64 | 64 | 32 | 64 | >64 | 64 | >64 | >64 | 
